Experiments:
[1] = target: Histone-lysine N-methyltransferase EZH2 (Homo sapiens, UniProt Q15910, Y641F)
Pfeiffer = test: cells; assay type: functional, cell-based; conditions: Homo sapiens
[2] = target: Histone-lysine N-methyltransferase EZH2 (Homo sapiens, UniProt Q15910, Y641N)
MCF7 [3] = test: cells; assay type: functional, cell-based; conditions: Homo sapiens, MCF7, 24 h
HepG2 = test: cells; assay type: functional, cell-based; conditions: Homo sapiens, HepG2, 24 h
PC-3 = test: cells; assay type: functional, cell-based; conditions: Homo sapiens, PC-3, 24 h
[4] = target: T1, Histone-lysine N-methyltransferase EZH2 (Homo sapiens, UniProt Q15910)
T1 sequence (Q15910 whole entry): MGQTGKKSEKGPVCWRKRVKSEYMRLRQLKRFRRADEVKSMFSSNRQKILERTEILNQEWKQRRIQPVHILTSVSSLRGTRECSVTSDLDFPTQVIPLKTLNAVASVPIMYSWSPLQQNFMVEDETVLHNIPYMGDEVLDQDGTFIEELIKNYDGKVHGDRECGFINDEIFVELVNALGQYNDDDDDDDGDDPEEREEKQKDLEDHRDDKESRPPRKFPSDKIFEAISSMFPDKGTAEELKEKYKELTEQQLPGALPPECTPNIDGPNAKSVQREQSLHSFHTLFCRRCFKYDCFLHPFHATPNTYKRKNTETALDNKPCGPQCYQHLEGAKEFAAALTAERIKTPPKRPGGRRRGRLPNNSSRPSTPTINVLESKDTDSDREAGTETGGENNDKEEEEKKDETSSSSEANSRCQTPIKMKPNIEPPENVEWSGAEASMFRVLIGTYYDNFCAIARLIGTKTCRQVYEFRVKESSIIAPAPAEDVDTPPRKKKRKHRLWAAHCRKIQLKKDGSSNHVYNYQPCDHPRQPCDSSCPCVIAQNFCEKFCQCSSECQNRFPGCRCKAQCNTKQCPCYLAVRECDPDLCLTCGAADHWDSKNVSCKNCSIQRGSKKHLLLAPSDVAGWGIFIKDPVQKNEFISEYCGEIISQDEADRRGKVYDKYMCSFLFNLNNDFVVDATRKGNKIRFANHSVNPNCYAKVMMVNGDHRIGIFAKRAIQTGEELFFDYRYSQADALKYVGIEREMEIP

SU-DHL-6 = test: cells; assay type: functional, cell-based; conditions: Homo sapiens
KARPAS-422 [5] = test: cells; assay type: functional; conditions: Homo sapiens
KARPAS-422 [6] = test: cells; assay type: functional, cell-based; conditions: Homo sapiens
[7] = target: T1, Histone-lysine N-methyltransferase EZH2; remark: listed apart in the source
[8] = target: T1, Histone-lysine N-methyltransferase EZH2; remark: listed apart in the source
WSUDLCL2 = test: cells; assay type: functional, cell-based; conditions: Homo sapiens
HeLa = test: cells; assay type: functional, cell-based; conditions: Homo sapiens
[9] = target: T1, Histone-lysine N-methyltransferase EZH2; remark: listed apart in the source
MDA-MB-231 = test: cells; assay type: functional, cell-based; conditions: Homo sapiens, MDA-MB-231, 72 h
MDA-MB-468 = test: cells; conditions: Homo sapiens
cells = conditions: Homo sapiens, MDA-MB-23
MCF7 [10] = test: cells; conditions: Homo sapiens

Histone-lysine N-methyltransferase EZH2 (Homo sapiens, UniProt Q15910, Y641F), sequence (Q15910 whole entry Y641F): as the sequence (Q15910 whole entry) above, with Y641F counted along it
Histone-lysine N-methyltransferase EZH2 (Homo sapiens, UniProt Q15910, Y641N), sequence (Q15910 whole entry Y641N): as the sequence (Q15910 whole entry) above, with Y641N counted along it

CCN(c1cc(-c2cnc(N3CCN(C)CC3)nc2)cc2c(NCc3c(C)cc(C)[nH]c3=O)nccc12)[C@H]1CC[C@H](N(C)C)CC1
IC50 [1]: < 5 nM
IC50 (Pfeiffer): 249 nM

C=CCC1(S(=O)(=O)n2nc(C)c3c(C(=O)NCc4c(C)cc(C)[nH]c4=O)cc(-c4ccc(N5CCN(C)CC5)nc4)cc32)CC1
IC50 [1]: 585 nM
IC50 [2]: 2810 nM

O=C1CCSC(c2ccc([N+](=O)[O-])cc2)N1Nc1nc2ccccc2[nH]1 (configuration not stated)
IC50 (MCF7 [3]): 47600 nM
IC50 (HepG2): 55800 nM
IC50 (PC-3): 64600 nM

[2H]C([2H])([2H])Sc1cc(C)[nH]c(=O)c1CNC(=O)c1c(C)n([C@H](C)C2CCC(OC)CC2)c2ccc(-c3cnn(C)c3)cc12 (some centres not stated)
IC50 [4]: 0.4 nM
IC50 (SU-DHL-6): 71.1 nM

Cc1cc2c(c(=O)[nH]1)CNC(=O)c1cc(Cl)cc3c1c(cn3C(C)C)/C=C/CC2
IC50 [4]: 40 nM

CCCc1cc(C)n(C)c(=O)c1CN(C)C(=O)c1cc(-c2ccc(N3CCN(C(C)C)CC3)nc2)cc2c1CNN2C(C)C
IC50 [4]: 13000 nM

CCN(c1cc(Cl)cc(C(=O)NCc2c[nH]c(C)cc2=O)c1C)[C@H]1CC[C@H](N(C)C)CC1
IC50 [4]: 3 nM

O=C1CCSC(c2ccc(Cl)cc2)N1Nc1nc2ccccc2[nH]1 (configuration not stated)
IC50 (MCF7 [3]): 74300 nM
IC50 (HepG2): 53300 nM
IC50 (PC-3): 66900 nM

Cc1cc(C)c(CNC(=O)c2cc(Br)c3c(c2C)O[C@@](C)([C@H]2CC[C@H](N(C)C)CC2)O3)c(=O)[nH]1
GI50 (KARPAS-422 [5]): 4 nM

C=CC(=O)Nc1nn(Cc2ccccc2)c(C)c1C(=O)NCc1c(C)cc(C)[nH]c1=O
IC50 [4]: 5240 nM

CCN(c1cc(C(=O)NCc2c(OC)cc(C)[nH]c2=O)nc2c(-c3ccnc(N(C)C)c3)cnn12)C1CCOCC1
IC50 [1]: ≤ 100 nM

C[C@H](C(=O)NC1COC1)c1cnc(NC[C@H]2CC[C@H](Nc3ccc4ccnc(Cl)c4n3)CC2)nc1
IC50 (KARPAS-422 [6]): 0.3 nM

CCN(c1cc(C(=O)NCc2c(OC)cc(C)[nH]c2=O)nc2c(-c3ccnc(NC)c3)cnn12)C1CCN(CC(F)(F)F)CC1
IC50 [1]: ≤ 100 nM

CCN(c1cc(Cl)cc2c1C/C=C/CCc1cc(C)[nH]c(=O)c1CNC2=O)C1CCC(F)(F)CC1
IC50 [4]: 16 nM

C=CC(=O)Nc1nn(Cc2ccc(-c3ccccc3)cc2)c(C)c1C(=O)NCc1c(C)cc(C)[nH]c1=O
IC50 [4]: 109 nM

Cc1cc(C)c(CNC(=O)c2cc(-c3ccc(CN4CCN(C)CC4)cc3)cc3c2OCCN3C2CCCCC2)c(=O)[nH]1
IC50 (Pfeiffer): 4210 nM

Cc1cc(C)c(CNC(=O)c2cnn(-c3ccccc3)c2)c(=O)[nH]1
IC50 [7]: > 400000 nM

[2H]C([2H])(NC(=O)c1c(C)n([C@H](C)C2CCC(OC)CC2)c2ccccc12)c1c(SC)cc(C)[nH]c1=O (some centres not stated)
IC50 [4]: 0.54 nM
IC50 (SU-DHL-6): 9.94 nM

COc1ccc(C2SCCC(=O)N2Nc2nc3cc(C)c(C)cc3[nH]2)cc1 (configuration not stated)
IC50 (MCF7 [3]): 59700 nM
IC50 (HepG2): 68300 nM
IC50 (PC-3): 66300 nM

Cc1cc(-c2ccc(N3CCN(C)CC3)nc2)c2ccc(C(=O)NCc3c(OC(C)C)cc(C)[nH]c3=O)c(C)c2n1
IC50 [1]: 13 nM
IC50 [8]: 1.29 nM

COc1cc(C)[nH]c(=O)c1CN1CCn2ccc3cc(-c4c(C)noc4C)c(Cl)c(c32)C1=O
IC50 (WSUDLCL2): 3.8 nM
IC50 (KARPAS-422 [6]): 52 nM

Cc1cc(Cl)c(CNC(=O)c2cc(Cl)c3c(c2C)OC(C)(C2CCC(N4CC(OC5CC5)C4)CC2)O3)c(=O)[nH]1 (configuration not stated)
EC50 (HeLa): 0.52 nM
GI50 (KARPAS-422 [5]): 5 nM

COC1CN([C@H]2CC[C@H]([C@@H](C)c3sc4c(c3C)C(=O)N(Cc3c(C)cc(C)[nH]c3=O)CCC4)CC2)C1
IC50 [1]: 0.92 nM
IC50 [8]: 0.0097 nM
IC50 [9]: 2.65 nM

O=C1CCSC(c2ccccc2Cl)N1Nc1nc2ccccc2[nH]1 (configuration not stated)
IC50 (MCF7 [3]): 20300 nM
IC50 (HepG2): 13600 nM
IC50 (PC-3): 9410 nM

CCN(c1cc(-c2ccc(CN3CCOCC3)cc2)cc(C(=O)NCC2C(=O)NC(C)c3cccc(F)c32)c1C)C1CCOCC1 (configuration not stated)
IC50 [9]: 500 nM

COc1cc2nc(N3CCCN(C)CC3)nc(NC3CCN(Cc4ccccc4)CC3)c2cc1OC
IC50 (MDA-MB-231): 9600 nM

O=C(c1cc(Cc2n[nH]c(=O)c3ccccc23)ccc1F)N1CCN(C(=O)C2CC2)CC1 [OLAPARIB]
IC50 (MDA-MB-468): 35600 nM
IC50 (cells): 36900 nM
IC50 (MCF7 [10]): > 50000 nM

Cc1cc(C)c(CNC(=O)c2cc(Cl)c3c(c2C)O[C@@](C)([C@H]2CC[C@H](N(C)C)CC2)O3)c(=O)[nH]1 [VALEMETOSTAT]
GI50 (KARPAS-422 [5]): 4.8 nM

From ChEMBL document CHEMBL5120864, “Targeting Enhancer of Zeste Homolog 2 for the Treatment of Hematological Malignancies and Solid Tumors: Candidate Structure-Activity Relationships Insights and Evolution Prospects” (J Med Chem, 2022)
